Consider 1 molecule from ChEMBL document CHEMBL1155639, “Synthesis of 16,18-dihydroxycleroda-3,13Z-dien-16,15-olide, (+)-16-hydroxycleroda-3,13Z-dien-16,15-olide, and (-)-hydroxyhalima-5(10),13-dien-16,15-olide from (+)-hardwickiic acid” (2000).

This experiment has as its system Mycobacterium tuberculosis. In words: Antitubercular activity against Mycobacterium tuberculosis at 12.5 ug/mL by TAACF method. The class given is functional.

SMILES strings stand for the structures.

Turning to `CC1=CCC[C@H]2[C@](C)(CCC3=CC(=O)OC3O)[C@@H](C)CC[C@]12C` (stereo partly specified), the inhibition at 12.5 µg/mL stood at 85%.

Broadly, the inhibition is how much of the control response was suppressed.
